We go through five compounds from US10155948B2, “Pharmaceutical composition for preventing or treating diabetic complications and screening method for preventive or therapeutic agent for diabetic complications” (KANGWON NATIONAL UNIVERSITY UNIVERSITY-INDUSTRY COOPERATION …, priority 2016, dated 2018).

In test [1] the target is T1, TGase2 (Homo sapiens, UniProt P21980).
T1 sequence (P21980 1-687): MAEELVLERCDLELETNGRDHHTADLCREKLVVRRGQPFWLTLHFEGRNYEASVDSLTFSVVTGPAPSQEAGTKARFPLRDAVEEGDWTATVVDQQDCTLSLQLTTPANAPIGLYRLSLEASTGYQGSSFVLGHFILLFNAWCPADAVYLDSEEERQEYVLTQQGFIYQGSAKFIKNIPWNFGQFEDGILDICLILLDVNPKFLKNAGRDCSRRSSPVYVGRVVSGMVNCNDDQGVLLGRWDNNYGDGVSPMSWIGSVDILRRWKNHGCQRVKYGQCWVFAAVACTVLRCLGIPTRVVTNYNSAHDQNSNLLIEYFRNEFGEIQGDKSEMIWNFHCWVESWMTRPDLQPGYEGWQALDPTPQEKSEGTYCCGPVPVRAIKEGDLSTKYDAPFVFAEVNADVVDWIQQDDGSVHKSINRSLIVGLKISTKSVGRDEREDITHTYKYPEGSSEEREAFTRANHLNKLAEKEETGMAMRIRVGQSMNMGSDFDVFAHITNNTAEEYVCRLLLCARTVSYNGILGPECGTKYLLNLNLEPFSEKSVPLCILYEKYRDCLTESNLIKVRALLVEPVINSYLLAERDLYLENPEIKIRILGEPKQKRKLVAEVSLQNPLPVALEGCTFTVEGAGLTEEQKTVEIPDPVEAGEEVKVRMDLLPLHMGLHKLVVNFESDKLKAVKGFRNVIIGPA
In words: In-situ TGase activity by confocal microscopy in VEGF-treated HRECs. In kind it is cell-based. The settings on record: 10 ng/ml VEGF 2 hrs, 50 μM cystamine, 20 μM MDC, 5 μM BAPTA-AM, 1 mM NAC, 0.5 μM Trolox, p<0.001. Also noted: endogenous in cells; host or cells: human retinal endothelial cells (HRECs). The procedure:
HUVEC isolation was done by our own supply and Human retinal endothelial cells (HRECs) were purchased from the Applied Cell Biology Research Institute (Cell Systems, Kirkland, Wash.). Both respectively were grown on 2% gelatin-coated plates in a M199 medium supplemented with 20% fetal bovine serum (FBS), 3 ng/ml basic fibroblastic growth factor, 5 units/ml heparin, 100 units/ml penicillin, and 100 μg/ml streptomycin. For experiments, cells were incubated for 6 hrs in a low-serum medium supplemented with 1% FBS and antibiotics.
In-situ Tgase transamidating activity was determined via confocal microscopic assay according to a previously known procedure. In brief, cells were incubated with 1 mM 5-(biotinamido)pentylamine (BAPA) for 1 hr at 37° C., fixed with 3.7% formaldehyde in PBS for 30 min, and permeabilized with 0.2% Triton X-100 in PBS for 30 min. After incubation with a blocking solution of 2% BSA in 20 mM Tris (pH 7.6), 138 mM NaCl, and 0.1% Tween 20 for 30 min, cells were treated with Cy3-conjugated streptavidin (1:200, v/v) in the blocking solution for 1 hr. Single-cell fluorescence intensities of stained cells were determined using confocal microscopy for 10 randomly selected cells per test. TGase activities were determined by comparing average fluorescence intensities of treated cells with those of control cells (expressed as multiples thereof).
HRECs were transfected with human TGase2-specific siRNA as described previously. In brief, cells were transfected with various concentrations of human TGase2-siRNA or 100 nM control siRNA (Dharmacon, Lafayette, Colo.) using siLentFect lipid reagent (Bio-Rad Laboratories, Hercules, Calif.) according to the manufacturer's instructions. Six hours after transfection with the indicated concentrations, the medium was replaced with a fresh culture medium and the transfected cells were further incubated for 24 hrs.
A detailed description of FIGS. 1A-1F are given below. […] (A, B) HRECs were incubated with 10 ng/ml VEGF for the indicated times (A) or for 2 hrs (B) in the presence of TGase inhibitors (50 μM cystamine and 20 μM MDC), 5 μM Ca^2+ chelator BAPTA-AM, or ROS scavengers (1 mM NAC or 0.5 μM Trolox). In-situ TGase activity was determined by confocal microscopy as described in Research Design and Methods (A: Time course changes in VEGF-induced transglutaminase activation; and B: Effects of various inhibitors on VEGF-induced transglutaminase activation). (C,D) HRECs were transfected with the indicated concentrations (C) or 100 nM (D) of human TGase2-specific siRNA (TGase2 siRNA) or 100 nM control (Ctrl) siRNA. Endothelial cells were treated with 10 ng/ml VEGF and subjected to confocal microscopic determination of in-situ TGase activity (C: Dose-dependent inhibition of TGase2 expression by TGase2 siRNA, TGase2 expression being analyzed by Western blot; and D: TGase2 siRNA prevention of VEGF-induced transglutaminase activation). FIGS. 1E and 1F show the effects of various inhibitors on the elevation of intracellular Ca^2+ (E) and ROS (F). Intracellular Ca^2+ and ROS levels were determined by confocal microscopy as described in Research Design and Methods. Results are expressed as mean±SD from three independent trials (***p<0.001).

Test [2] addresses T1, TGase2. The settings on record: protein chip-based, dose-dependent.

Structures are written as SMILES.

On to `CN(C)c1cccc2c(S(=O)(=O)NCCCCCN)cccc12` [MDC, monodansylcadaverine], for which, on TGase2 [1], the “VEGF-induced TGase activation (in-situ TGase activity)” value is recorded as “prevented”. Still for that read-out and setting: then `Cc1c(C)c2c(c(C)c1O)CCC(C)(C(=O)O)O2` (centres unmarked) [Trolox], with “inhibited”; and `NCCSSCCN` [cystamine], with “prevented”. For `NCCS` [cysteamine], the TGase2 activity entry at TGase2 [2] is given as “inhibited”.

As for `NCCc1ccc(O)c(O)c1` [dopamine], on TGase2 [2], the TGase2 activity result is given as “inhibited”.
